Columns and labels:
Type in all cases: cell-based, Human
U2OS cells [1] = assay: DR-GFP assay of HR-mediated repair
Procedure: (§1) Human U2OS, HCT116, hTERT RPE-1, HEK293T, HeLa, U87, T98G, A2780, and human skin fibroblast cells (GM08398 and GM18366) were grown in DMEM media supplemented with 10% bovine calf serum, penicillin/streptomycin and non-essential amino acids. SV40 large T antigen transformed hTERT RPE-1 cells were generated by infecting hTERT RPE-1 cells with a SV40 large T antigen (SV40 LT)-expressing retrovirus and were selected using 500 μg/ml G418. The stable SV40 large T antigen transformed hTERT RPE-1 cell line was then maintained in culture media supplemented 500 μg/ml G418. For chronic treatment with ATR inhibitor (ATRi, VE-821) or ATM inhibitor (ATMi, KU-55933), cells were maintained in media with 5 μM ATR or ATM inhibitor respectively for 8 days before cells were subjected to western blot analysis, proteomic analysis, DR-GFP/EJ5-GFP assay or immunofluorescent staining. For CHK1 inhibitor (UCN-01), cells were treated for 5 days with 0.2 μM of inhibitor before the analysis. Primary human fibroblast cells from control subjects (GM08398) and patients with Seckel syndrome (GM18366, ATR-defective) were obtained from Coriell Institute for Medical Research, Camden, N.J.
For the DR-GFP assay, cells (U2OS, HCT116, hTERT RPE-1, HEK293T, HeLa, U87, T98G, A2780, 293-T-REX-E2F6 cells and SV40 large T antigen transformed hTERT RPE-1) were transfected with the mCherry plasmid or DR-GFP reporter plasmid (pDR-GFP; addgene plasmid 26475) together with a plasmid coding for I-SceI (pCBASceI; addgene plasmid 26477) or DR-GFP reporter plasmid together with an empty plasmid pCAGGS. Two days after transfection, cells were trypsinized, resuspended in PBS and then analyzed by flow cytometry using FACSAria Fusion or Accuri C6 cytometer (BD). In each experiment, the percentage of GFP-positive cells from the sample transfected with empty plasmid pCAGGS was subtracted from the percentage of GFP-positive cells in the sample transfected with I-SceI. The GFP percentage was then normalized by the mCherry transfection efficiency. Each graph was plotted based on at least 3 independent experiments showing mean±SEM (N≥3). For the EJ5-GFP assay, EJ5-GFP reporter plasmid (pimEJ5GFP, addgene plasmid 44026) was used instead of DR-GFP reporter plasmid and the assay was performed as described for DR-GFP assay.

U2OS cells [2] = assay: Immunoblotting of HR factor abundance; conditions: CHK1 inhibitor 0.2 μM, 5 days
Procedure: FIG. 5A is a schematic diagram of the SILAC/MS experiment. FIG. 5B is a quadrant diagram of the SILAC/MS experiment. Each dot represents a different identified protein. Proteins with abundance reduced two-fold or more after ATRi treatment are shown in the upper-left corner (white quadrant). FIG. 5C is a WB analysis of U2OS cells after 8 days of chronic treatment with 5 μM of ATRi or ATMi. FIG. 5D is a time course WB analysis of U2OS cells during chronic treatment with 5 μM ATRi. FIG. 5E is a WB analysis of U2OS cells at distinct cell cycle stages. Cells were treated with 1 mM hydroxyurea (HU) or 50 ng/ml nocodazole (Noc) for 24 hours. HU treated cells were released for 2.5 hours in HU-free media. FIG. 5F is a WB analysis of U2OS cells untreated or treated for 8 days with 5 μM ATRi.
as §1
(§2) Cells were harvested and lysed in modified radioimmunoprecipitation assay (RIPA) buffer (50 mM Tris-HCl pH 7.5, 150 mM NaCl, 1% tergitol, 0.25% sodium deoxycholate, 5 mM EDTA) supplemented with Complete EDTA-free protease inhibitor cocktail (Roche), 1 mM PMSF, 5 mM sodium fluoride, 10 mM β-glycerol-phosphate and 0.4 mM sodium orthovanadate. Whole cell lysates were cleared with 5 minute centrifugation at 13,000 rpm at 4° C. and mixed with 3×SDS sample buffer (bromophenol blue, stacking gel buffer, 50% glycerol, 3% SDS and 60 mM DTT). After being resolved on SDS-PAGE gels, proteins were then transferred onto polyvinylidene difluoride (PVDF) membranes and detected with designated antibodies.

U2OS cells [3] = assay: Real time PCR of mRNA levels; conditions: ATRi 5 μM 8 days or CHK1i 0.2 μM 5 days, normalized to GAPDH
From the text: FIG. 9B is a bar graph showing the analysis of HR-mediated repair using the DR-GFP system. Relative fold change of GFP positive U2OS cells treated with CHK1i compared to DMSO treatment control. (Error bars=SEM, N=4, ****P-value<0.0001; one sample-t-test was used for the statistical analysis). FIGS. 9C-9D show a histogram showing representative FACS data (FIG. 9C) and a bar graph showing quantitation of G1, S and G2/M population for cell cycle analysis of CHK1i treated cells (FIG. 9D) (Error bars=SD, N=3). FIG. 9E are bar graphs showing real time PCR analysis of total RNA extracted from U2OS cells treated with DMSO, ATRi (5 μM for 8 days) or CHK1i (0.2 μM for 5 days). Values were normalized to GAPDH mRNA levels. (Error bars=SD, N=3). FIG. 9F is a schematic diagram showing a proposed model of how E2F transcription is regulated through ATR-CHK1 signaling. […] FIG. 9H is a bar graph showing DR-GFP analysis of 293-T-REX-E2F6 cells after 8 days of treatment with DMSO or doxycycline. (Error bars=SEM, N=4). FIG. 9I is a histogram showing cell cycle analysis of 293-T-REX-E2F6 cells after 8 days of treatment with DMSO or doxycycline. FIG. 9J is a schematic diagram showing a model depicting multiple roles of ATR in the control of HR capacity.
Cells cultured from 10 cm dish were collected and lysed in 1 ml of TRIzol (Invitrogen). Chloroform was added to the lysed sample to separate RNA. Separated RNA was precipitated by isopropyl alcohol, followed by two washes with 75% ethanol. 1 μg of extracted RNA from each sample was then reverse transcribed with Bio-Rad iScript cDNA synthesis kit. The samples (˜100 ng) were analyzed in a Roche 480 light cycler in a total of 15 μl containing SYBR green mix and primers. The values were calculated using “absolute quantification/2nd derivative max” in lightcycler 480 program and then normalized to the level of GAPDH.

U2OS cells [4] = assay: Cell cycle analysis (propidium iodide, flow cytometry); conditions: CHK1i 0.2 μM, 5 days
Procedure: Cells were harvested by standard trypsinization and fixed with 70% ethanol. After fixation, cells from each sample were resuspended in PBS, permeabilized using 0.1% Triton X-100 and treated with RNase A (0.8 mg/ml). Then cells were stained with propidium iodide and analyzed by flow cytometry using FACSAria Fusion (BD) or Accuri C6 cytometer (BD) to determine the fraction of cells in different stages of the cell cycle.

HCT116 cells = assay: Western blot after chronic CHK1i; conditions: chronic CHK1 inhibition
Procedure: as §2

O=c1cc(-c2cccc3c2Sc2ccccc2S3)oc(N2CCOCC2)c1 [ATMi, KU-55933]
HR-mediated repair efficiency (DR-GFP, GFP positive cells over DMSO) (U2OS cells [1]; 5 μM, chronic 8 days): did not result in major changes in HR-mediated repair efficiency

CN[C@@H]1C[C@H]2O[C@@](C)([C@@H]1OC)n1c3ccccc3c3c4c(c5c6ccccc6n2c5c31)C(=O)N[C@@H]4O [CHK1i, UCN-01]
Abundance of BRCA1, RAD51, RRM2 and E2F1 (WB) (U2OS cells [2]): severely reduced
HR efficiency (DR-GFP) (U2OS cells [1]; CHK1i 0.2 μM, 5 days): sharp decrease in HR efficiency
mRNA levels of BRCA1 and RAD51 (U2OS cells [3]): reduction in the mRNA levels of BRCA1 and RAD51
Relative number of S phase cells (U2OS cells [4]): increase in the relative number of S phase cells
Level of E2F1 and abundance of other HR proteins (WB) (HCT116 cells): did not lower the level of E2F1 nor the abundance of other HR proteins
